Assay results from patent US9884846B2, “Crystalline salts of (S)-6-((1 acetylpiperidin-4-yl)amino)-N-(3-(3,4-dihydroisoquinolin-2(1H)-yl)-2-hydroxypropyl)pyrimidine-4-carboxamide” (GlaxoSmithKline Intellectual Property Development Limited, priority 2014, dated 2018).

Experiments:
[1] = Solid-state stability on storage (degradation; physical changes by XRPD); type: physicochemical; details: 40° C./75% RH open vessel, and 50° C./Ambient closed vessel
[2] = Photolysis at 1×ICH solid state; type: physicochemical

| SMILES | physical changes by XRPD analysis ([1]; after 2 weeks at 25° C./60% RH open vessel) | degradation by photolysis [2] | form change by XRPD after photolysis [2] | degradation ([1]; after 4 weeks at 25° C./60% RH open vessel) | physical changes by XRPD analysis ([1]; after 6 weeks at 25° C./60% RH open vessel) |
| --- | --- | --- | --- | --- | --- |
| CC(=O)N1CCC(Nc2cc(C(=O)NC[C@H](O)CN3CCc4ccccc4C3)ncn2)CC1.O=C(O)c1ccccc1 [Compound C, benzoate salt of (S)-6-((1-acetylpiperidin-4-yl)amino)-N-(3-(3,4-dihydroisoquinolin-2(1H)-yl)-2-hydroxypropyl)pyrimidine-4-carboxamide] | No physical changes detected | Approximately 1.6% | no form change observed | – | – |
| CC(=O)N1CCC(Nc2cc(C(=O)NC[C@H](O)CN3CCc4ccccc4C3)ncn2)CC1.O=C(O)CCC(=O)O [Compound B, succinate salt of (S)-6-((1-acetylpiperidin-4-yl)amino)-N-(3-(3,4-dihydroisoquinolin-2(1H)-yl)-2-hydroxypropyl)pyrimidine-4-carboxamide] | – | Approximately 1.4% | no form change observed | ≤ 0.4% | No physical changes detected |
